# From patent US20080145424A1, “Sustained release L-arginine formulations and methods of manufacture and use” (Enos Phramaceuticals, Inc., priority 2002, published 2008)
# Tested on: total infarct volume
# Experiment: Dose optimization of combination of simvastatin and L-arginine, infarct volume in mice
# Format: in vivo
# Details: mice injected with varying levels of simvastatin and L-arginine; predicted by statistical analysis
compound,measurement,value
CCC(C)(C)C(=O)O[C@H]1C[C@@H](C)C=C2C=C[C@H](C)[C@H](CC[C@@H]3C[C@@H](O)CC(=O)O3)[C@H]21 [simvastatin],optimal range of the combination,1.2 to 1.4 mg/kg
